The results in this text go back to patent US9115072B2, “Compounds and method for reducing uric acid” (WELLSTAT THERAPEUTICS CORPORATION, priority 2008, dated 2015).

The assay concerns the target T1, human URAT1 (Homo sapiens, UniProt Q96S37).
T1 construct: The full-length hURAT1 cDNA was obtained from the vector pCMV6-XL5 and subcloned into the expression vector pCMV6-Neo
T1 sequence (Q96S37 1-553): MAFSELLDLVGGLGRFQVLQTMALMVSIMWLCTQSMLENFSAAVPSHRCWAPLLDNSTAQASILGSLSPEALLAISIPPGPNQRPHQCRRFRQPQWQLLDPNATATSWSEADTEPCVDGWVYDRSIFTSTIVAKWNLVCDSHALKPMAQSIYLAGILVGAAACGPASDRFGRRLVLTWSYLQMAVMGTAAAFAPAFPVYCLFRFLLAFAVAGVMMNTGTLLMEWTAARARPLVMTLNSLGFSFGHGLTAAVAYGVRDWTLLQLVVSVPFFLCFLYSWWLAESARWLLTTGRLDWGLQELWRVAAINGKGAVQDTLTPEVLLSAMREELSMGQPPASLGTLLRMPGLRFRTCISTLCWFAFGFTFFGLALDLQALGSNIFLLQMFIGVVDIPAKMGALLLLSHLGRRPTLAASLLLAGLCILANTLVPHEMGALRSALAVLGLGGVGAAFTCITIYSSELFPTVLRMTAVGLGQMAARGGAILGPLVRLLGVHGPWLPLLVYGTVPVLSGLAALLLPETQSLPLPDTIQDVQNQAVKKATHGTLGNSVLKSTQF
The assay can be described thus: URAT1 inhibition assay, [8-14C] urate uptake in hURAT1-HEK cells. Type of assay: cell-based. To be noted: 50 μM [8-14C] urate; for inhibition at 10 µM: drug concentration typically 10 micromolar, read-out: % of Inhibition (uric acid uptake). How it is done: A suitable assay involves transfection of cells (e.g. human embryonic kidney cells; “HEK”) with a vector encoding human URAT1, followed by determination of the ability of transfected cells to take up radiolabeled uric acid. The activity of compounds as URAT1 inhibitors is evaluated by their ability to block uric acid uptake by transfected cells.
Urate (50-60 mCi/mmol; American Radio Chemicals, Cat. No. ARC0513).
Plasmid vector pCMV6-XL5 containing hURAT1 cDNA (Cat. No. SC125624) and the expression vector pCMV6-Neo (Cat. No. pCMVNEO) were obtained from OriGene Technologies, Inc. The full-length hURAT1 cDNA was obtained from the vector pCMV6-XL5 and subcloned into the expression vector pCMV6-Neo to create the hURAT1 expression plasmid pCMV6-hURAT1. The sequences were verified by automatic DNA sequencing.
For transfection experiments, cells were plated on 60 mm dishes in 1 ml media per dish. […] Stable transfectants expressing hURAT1 (herein after referred as hURAT1-HEK cells) or cells having only the expression vector pCMV6-Neo (herein after referred as mock-HEK cells) were verified using reverse transcription polymerase chain reaction (RT-PCR) methods.
Before the uptake assay started, the culture medium was removed and the cells were incubated for 5 min in 0.6 ml of HBSS. After that HBSS was removed, the prepared reaction solutions were added into each well and incubated for 5 min at room temperature. Then the reaction solution was removed, cells were washed twice with 0.6 ml of cold HBSS and lysed with 0.2 ml of 0.1 M NaOH for 20 min. […] Test compounds were dissolved in DMSO and the same concentration of DMSO was added into the wells of mock-HEK cells and the hURAT1-HEK cells that didn't contain test compounds. For each test compound, the uptake assay was performed 2 times and carried out in triplicate. Urate uptake of the cells for each test condition was presented as the average percent inhibition in comparison to the DMSO control. The radioactivity values obtained for the wells that contained DMSO were taken as 100% uptake of the cells. The observed concentration-percent inhibition data were fitted to a sigmoidal concentration-effect model, where: IC50^Slope=[(100*Conc^Slope)/% Inhibition]−Conc^Slope
Additional drug concentrations were tested for determination of IC-50 values for some compounds (Table 6).

pIC50: −log10 of the molar value.

Turning to `COc1cccc(OC)c1COc1cccc(CC(=O)O)c1` [DY, 2-(3-(2,6-Dimethoxylbenzyloxy)phenyl)acetic acid], the pIC50 (in general, the negative decadic logarithm of the IC50, by convention in mol/L) was 5.73 and the inhibition – broadly, the share of the control response that was lost under treatment – at 10 µM came to 85.2%.

Consider `O=C(O)Cc1cccc(OCc2ccc(C(F)(F)F)cc2C(F)(F)F)c1` [DN, 2-(3-(2,4-bis(trifluoromethyl)benzyloxy)phenyl)acetic acid], for which the inhibition at 10 µM is 45.4%.

Turning to `Cc1cccc(C)c1COc1cccc(C(=O)C(=O)O)c1` [CQ, 2-(3-(2,6-Dimethylbenzyloxy)phenyl)-2-oxoacetic acid], the pIC50 was 5.88 and the inhibition at 10 µM was 84.8%.

`Cc1cccc(C)c1COc1cccc(C(C)C(=O)O)c1` (stereo not shown) [EC, 2-(3-(2,6-Dimethylbenzyloxy)phenyl)propanoic acid] gave a pIC50 of 6.48.

`Cc1ccccc1COc1cccc(C(=O)CCC(=O)O)c1` [AN, 4-(3-(2-Methylbenzyloxy)phenyl)-4-oxobutanoic acid]: the inhibition at 10 µM amounted to 54.4%.

Regarding `Cc1cccc(C)c1COc1cccc(CCCCC(=O)O)c1` [CK, 5-(3-(2,6-Dimethylbenzyloxy)phenyl)pentanoic acid], the pIC50 was 5.57 and the inhibition at 10 µM worked out at 88%.

As to `O=C(O)CCC(=O)c1ccc(OCc2ccccc2Cl)cc1` [AI, 4-(4-(2-Chlorobenzyloxy)phenyl)-4-oxobutanoic acid], the inhibition at 10 µM was 2.3%.

As for `Cc1cccc(C)c1C(=O)Oc1cccc(C(=O)CCC(=O)O)c1` [DP, 4-(3-(2,6-Dimethylbenzoyloxy)phenyl)-4-oxobutanoic acid], the inhibition at 10 µM was 60.5%.

As to `COc1ccc(CC(=O)O)cc1OCc1c(C)cccc1C` [DQ, 2-(3-(2,6-Dimethylbenzyloxy)-4-methoxyphenyl)acetic acid], the pIC50 is 6.74 and the inhibition at 10 µM was 99.4%.

With `Cc1ccc(C)c(COc2ccc(C(=O)CCC(=O)O)cc2)c1` [AT, 4-(4-(2,5-Dimethylbenzyloxy)phenyl)-4-oxobutanoic acid], the inhibition at 10 µM stood at 7.95%.

For the compound `Cc1cccc(C)c1COc1cc(CC(=O)O)ccc1F` [EI, 2-(3-(2,6-Dimethylbenzyloxy)-4-fluorophenyl)acetic acid], the inhibition at 10 µM is 93%.

As to `Cc1cccc(C)c1COc1ccccc1CC(=O)O` [EA, 2-(2-(2,6-Dimethylbenzyloxy)phenyl)acetic acid], the inhibition at 10 µM was found to be 49%.

Turning to `Cc1cccc(C)c1COc1cccc(C(C)C(=O)O)c1` (stereo not shown) [DT, 2-(3-(2,6-Dimethylbenzyloxy)phenyl)propanoic acid], the inhibition at 10 µM is 89.1%.

`Cc1cccc(F)c1COc1cccc(C(=O)CCC(=O)O)c1` [BJ, 4-(3-(2-Fluoro-6-methylbenzyloxy)phenyl)-4-oxobutanoic acid]: the inhibition at 10 µM stood at 81.8%.

Turning to `O=C(O)Cc1cccc(OCc2ccc(C(F)(F)F)cc2)c1` [DU], the inhibition at 10 µM was determined as 30.5%.

Regarding `O=C(O)CCC(=O)c1ccc(OCc2ccccc2C(F)(F)F)cc1` [AY, 4-(4-(2-Trifluoromethylbenzyloxy)phenyl)-4-oxobutanoic acid], the inhibition at 10 µM is 8.9%.

Turning to `Cc1cccc(C)c1COc1cccc(C2(C(=O)O)CC2)c1` [EF, 1-(3-(2,6-Dimethylbenzyloxy)phenyl)cyclopropanecarboxylic acid], the pIC50 was 6.23 and the inhibition at 10 µM worked out at 90.3%.

In the case of `O=C(O)CCC(=O)c1cccc(OCC2CC2)c1` [BH, 4-(3-(Cyclopropylmethoxy)phenyl)-4-oxobutanoic acid], the inhibition at 10 µM was 62.4%.

Regarding `O=C(O)CCC(=O)c1cccc(OCc2c(F)cccc2F)c1` [AW, 4-(3-(2,6-Difluorobenzyloxy)phenyl)-4-oxobutanoic acid], the inhibition at 10 µM is 61.9%.

For the compound `Cc1cccc(C)c1COc1cccc(CCC(=O)O)c1` [CM, 3-(3-(2,6-Dimethylbenzyloxy)phenyl)propanoic acid], the pIC50 is 6.00 and the inhibition at 10 µM was 89%.

Regarding `Cc1cccc(Cl)c1COc1cccc(CC(=O)O)c1` [EG, 2-(3-(2-Chloro-6-methylbenzyloxy)phenyl)acetic acid], the inhibition at 10 µM was 89.7%.

As to `CCC(C(=O)O)c1cccc(OCc2c(C)cccc2C)c1` (stereo not shown) [DV, 2-(3-(2,6-Dimethylbenzyloxy)phenyl)butanoic acid], the pIC50 was 6.05 and the inhibition at 10 µM was 79.5%.

Take `Cc1cccc(C)c1COc1cccc(C(=O)CC(C)(C)C(=O)O)c1` [BP, 4-(3-(2,6-Dimethylbenzyloxy)phenyl)-2,2-dimethyl-4-oxobutanoic acid]: the pIC50 is 5.36 and the inhibition at 10 µM came out at 76.5%.

For the compound `Cc1cccc(C)c1COc1ccc(CC(=O)O)cc1` [DO, 2-(4-(2,6-Dimethylbenzyloxy)phenyl)acetic acid], the inhibition at 10 µM came out at 80.3%.

As to `COc1cc(C(=O)CCC(=O)O)ccc1OCc1c(C)cccc1C` [BT, 4-(4-(2,6-Dimethylbenzyloxy)-3-methoxyphenyl)-4-oxobutanoic acid], the inhibition at 10 µM worked out at 51.8%.

Regarding `Cc1cccc(C)c1COc1cccc(C(C)(C)C(=O)O)c1` [EE, 2-(3-(2,6-Dimethylbenzyloxy)phenyl)-2-methylpropanoic acid], the inhibition at 10 µM was found to be 90.1%.

Take `Cc1cccc(C)c1COc1cccc(CCCC(=O)O)c1` [BS, 4-(3-(2,6-Dimethylbenzyloxy)phenyl)butanoic acid]: the inhibition at 10 µM is 28.6%.

`O=C(O)CCC(=O)c1ccc(OCc2ccccc2)cc1` [AG, 4-(4-(Benzyloxy)phenyl)-4-oxobutanoic acid]: the inhibition at 10 µM amounted to 5.99%.

Regarding `Cc1cccc(C)c1COc1cccc(C(=O)CCCC(=O)O)c1` [CD, 5-(3-(2,6-Dimethylbenzyloxy)phenyl)-5-oxopentanoic acid], the inhibition at 10 µM was determined as 63.5%.

Regarding `O=C(O)CCC(=O)c1ccc(OCc2ccccn2)cc1` [AF, 4-oxo-4-(4-(pyridin-2-ylmethoxy)phenyl)butanoic acid], the inhibition at 10 µM amounted to 41.3%.

`COC(=O)CC(=O)c1cccc(OCc2c(C)cccc2C)c1` [EB, Methyl 3-(3-(2,6-dimethylbenzyloxy)phenyl)-3-oxopropanoate]: the inhibition at 10 µM came to 21.6%.

Consider `O=C(O)CCC(=O)c1cccc(OCc2c(Cl)cccc2Cl)c1` [DS, 4-(3-(2,6-Dichlorobenzyloxy)phenyl)-4-oxobutanoic acid], for which the inhibition at 10 µM was found to be 75%.

On to `O=C(O)Cc1cccc(OCc2ccccc2)c1` [DZ, 2-(3-(Benzyloxy)phenyl)acetic acid], for which the inhibition at 10 µM was 26.9%.

On to `O=C(O)CCC(=O)c1ccc(OCc2c(F)cccc2F)cc1` [AH, 4-(4-(2,6-Difluorobenzyloxy)phenyl)-4-oxobutanoic acid], for which the inhibition at 10 µM was determined as 26.8%.

Take `Cc1cccc(C)c1COc1cccc([C@H](O)CCC(=O)O)c1` [CR, 4-(3-(2,6-Dimethylbenzyloxy)-phenyl)-4(R)-hydroxybutanoic acid]: the inhibition at 10 µM is 60.6%.

Consider `Cc1cc(C)cc(COc2cccc(CC(=O)O)c2)c1` [DW, 2-(3-(3,5-Dimethylbenzyloxy)phenyl)acetic acid], for which the inhibition at 10 µM worked out at 54%.

With `Cc1cccc(C)c1COc1cccc(CC(=O)O)c1` [CF, 3-(2,6-Dimethylbenzyloxy)phenylacetic acid], the pIC50 was 6.28 and the inhibition at 10 µM was determined as 96.5%.

As to `O=C(O)Cc1cccc(OCc2c(F)cccc2F)c1` [DR, 2-(3-(2,6-Difluorobenzyloxy)phenyl)acetic acid], the inhibition at 10 µM amounted to 68.3%.

In the case of `Cc1ccc(COc2cccc(CC(=O)O)c2)c(C)c1` [DX, 2-(3-(2,4-Dimethylbenzyloxy)phenyl)acetic acid], the inhibition at 10 µM was 64%.

For the compound `Cc1cccc(C)c1COc1ccc(C(=O)CCC(=O)O)cc1` [BM, 4-(4-(2,6-Dimethylbenzyloxy)phenyl)-4-oxobutanoic acid], the inhibition at 10 µM was determined as 22.2%.
